What is called IC50 is the concentration needed to halve the response being measured. Lower therefore signals higher potency. By EC50 is commonly meant the midpoint of the concentration-response curve.

From ChEMBL document CHEMBL1151687, “Search for alpha-helical propensity in the receptor-bound conformation of glucagon-like peptide-1” (Bioorg Med Chem, 2008) come the findings set out here.

Experiment [1] has as its target T1, Glucagon-like peptide 1 receptor (Homo sapiens, UniProt P43220). The experiment in a line: Displacement of [125I]exendin(9-39) from human GLP1R expressed in HEK293 cells. The class given is cell-based. A general note: In a radioligand displacement assay an active substance lowers the binding of a labelled ligand.
Experiment [2] addresses T1, Glucagon-like peptide 1 receptor. In words: Activation of human GLP1R expressed in HEK293 cells assessed as effect on cAMP responsive element promoter driven luciferase expression. Format: functional, cell-based.

Positions of bridges follow the written chain, without caps; N, C: chain ends. Residues, ends and D or L forms follow the SMILES beside them.

T1 sequence (P43220 whole entry): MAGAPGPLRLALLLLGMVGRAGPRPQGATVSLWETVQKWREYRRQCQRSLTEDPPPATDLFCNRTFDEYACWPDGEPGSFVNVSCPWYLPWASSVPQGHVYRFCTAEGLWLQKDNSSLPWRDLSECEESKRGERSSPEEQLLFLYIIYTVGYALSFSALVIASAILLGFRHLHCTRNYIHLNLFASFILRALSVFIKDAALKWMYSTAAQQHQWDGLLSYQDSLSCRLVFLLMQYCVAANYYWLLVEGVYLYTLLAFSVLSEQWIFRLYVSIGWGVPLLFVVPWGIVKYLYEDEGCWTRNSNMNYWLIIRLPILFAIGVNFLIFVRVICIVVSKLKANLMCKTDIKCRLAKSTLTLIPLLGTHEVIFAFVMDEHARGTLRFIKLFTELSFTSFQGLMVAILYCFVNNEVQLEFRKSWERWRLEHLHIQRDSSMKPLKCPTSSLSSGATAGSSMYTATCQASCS

In the case of `CC[C@H](C)[C@H](NC(=O)[C@H](CCC(=O)O)NC(=O)[C@H](CCCCN)NC(=O)[C@H](C)NC(=O)[C@H](C)NC(=O)[C@H](CCC(N)=O)NC(=O)CNC(=O)[C@H](CCC(=O)O)NC(=O)[C@H](CCC(N)=O)NC(=O)[C@H](Cc1ccc(O)cc1)NC(=O)[C@H](CO)NC(=O)[C@H](CO)NC(=O)[C@H](CCCCNC(C)=O)NC(=O)[C@H](CC(=O)O)NC(=O)[C@H](CO)NC(=O)[C@@H](NC(=O)[C@H](Cc1ccccc1)NC(=O)[C@@H](NC(=O)CNC(=O)[C@H](CCC(=O)O)NC(=O)[C@H](C)NC(=O)[C@@H](N)Cc1cnc[nH]1)[C@@H](C)O)[C@@H](C)O)C(=O)N[C@@H](Cc1ccccc1)C(=O)N[C@@H](C)C(=O)N[C@@H](Cc1c[nH]c2ccccc12)C(=O)N[C@@H](CC(C)C)C(=O)N[C@H](C(=O)N[C@@H](CCCCN)C(=O)NCC(=O)N[C@@H](CCCN=C(N)N)C(N)=O)C(C)C`, the IC50 in experiment [1] was found to be 6.6 nM. The half-maximal effective concentration (EC50) in experiment [2] stood at 0.012 nM.

The compound `CC[C@H](C)[C@H](NC(=O)[C@H](CCC(=O)O)NC(=O)[C@H](CCCCN)NC(=O)[C@H](C)NC(=O)[C@H](C)NC(=O)[C@H](CCC(N)=O)NC(=O)CNC(=O)[C@H](CCC(=O)O)NC(=O)[C@H](CC(C)C)NC(=O)[C@H](Cc1ccc(O)cc1)NC(=O)[C@H](CO)NC(=O)[C@H](CO)NC(=O)[C@@H](NC(=O)[C@H](CCC(N)=O)NC(=O)[C@H](CO)NC(=O)[C@@H](NC(=O)[C@H](Cc1ccccc1)NC(=O)[C@H](CCCCNC(C)=O)NC(=O)CNC(=O)[C@H](CCC(=O)O)NC(=O)[C@H](C)NC(=O)[C@@H](N)Cc1cnc[nH]1)[C@@H](C)O)C(C)C)C(=O)N[C@@H](Cc1ccccc1)C(=O)N[C@@H](C)C(=O)N[C@@H](Cc1c[nH]c2ccccc12)C(=O)N[C@@H](CC(C)C)C(=O)N[C@H](C(=O)N[C@@H](CCCCN)C(=O)NCC(=O)N[C@@H](CCCN=C(N)N)C(N)=O)C(C)C` (H-HAEGK(Ac)FTSQVSSYLEGQAAKEIFAWLVKGR-NH2) came in with an IC50 in experiment [1] of 440 nM. Moreover, the 50% effective concentration (EC50) in experiment [2] was determined as 24 nM.

With `CC[C@H](C)[C@H](NC(=O)[C@H](Cc1ccccc1)NC(=O)[C@H](CCC(=O)O)NC(=O)[C@H](CCCCN)NC(=O)[C@H](C)NC(=O)[C@H](C)NC(=O)[C@H](CCC(N)=O)NC(=O)CNC(=O)[C@H](CCC(=O)O)NC(=O)[C@H](CC(C)C)NC(=O)[C@H](Cc1ccc(O)cc1)NC(=O)[C@H](CO)NC(=O)[C@H](CO)NC(=O)[C@@H](NC(=O)[C@@H]1CCC(=O)NCCCC[C@H](NC(=O)CNC(=O)[C@H](CCC(=O)O)NC(=O)[C@H](C)NC(=O)[C@@H](N)Cc2cnc[nH]2)C(=O)N[C@@H](Cc2ccccc2)C(=O)N[C@@H]([C@@H](C)O)C(=O)N[C@@H](CO)C(=O)N1)C(C)C)C(=O)N[C@@H](C)C(=O)N[C@@H](Cc1c[nH]c2ccccc12)C(=O)N[C@@H](CC(C)C)C(=O)N[C@H](C(=O)N[C@@H](CCCCN)C(=O)NCC(=O)N[C@@H](CCCNC(=N)N)C(N)=O)C(C)C` (H-HAEGKFTSEVSSYLEGQAAKEFIAWLVKGR-NH2; lactam 5-9), in experiment [1] (hek293), the half-maximal inhibitory concentration (IC50) was 110 nM. The EC50 in experiment [2] (hek293) amounted to 0.38 nM.

For the compound `CC[C@H](C)[C@H](NC(=O)[C@H](Cc1ccccc1)NC(=O)[C@H](CCC(=O)O)NC(=O)[C@H](CCCCN)NC(=O)[C@H](C)NC(=O)[C@H](C)NC(=O)[C@H](CCC(N)=O)NC(=O)CNC(=O)[C@H](CCC(=O)O)NC(=O)[C@@H]1CSSC[C@H](NC(=O)[C@H](CC(=O)O)NC(=O)[C@H](CO)NC(=O)[C@@H](NC(=O)[C@H](Cc2ccccc2)NC(=O)[C@@H](NC(=O)CNC(=O)[C@H](CCC(=O)O)NC(=O)[C@H](C)NC(=O)[C@@H](N)Cc2cnc[nH]2)[C@@H](C)O)[C@@H](C)O)C(=O)N[C@@H](CO)C(=O)N[C@@H](CO)C(=O)N[C@@H](Cc2ccc(O)cc2)C(=O)N1)C(=O)N[C@@H](C)C(=O)N[C@@H](Cc1c[nH]c2ccccc12)C(=O)N[C@@H](CC(C)C)C(=O)N[C@H](C(=O)N[C@@H](CCCCN)C(=O)NCC(=O)N[C@@H](CCCNC(=N)N)C(N)=O)C(C)C` (H-HAEGTFTSDCSSYCEGQAAKEFIAWLVKGR-NH2; disulfide 10-14), the EC50 in experiment [2] (hek293) is 19 nM.

Take `CC[C@H](C)[C@H](NC(=O)[C@H](CCC(=O)O)NC(=O)[C@H](CCCCN)NC(=O)[C@H](C)NC(=O)[C@H](C)NC(=O)[C@H](CCC(N)=O)NC(=O)CNC(=O)[C@H](CCC(=O)O)NC(=O)[C@H](CS)NC(=O)[C@H](Cc1ccc(O)cc1)NC(=O)[C@H](CO)NC(=O)[C@H](CO)NC(=O)[C@H](CS)NC(=O)[C@H](CC(=O)O)NC(=O)[C@H](CO)NC(=O)[C@@H](NC(=O)[C@H](Cc1ccccc1)NC(=O)[C@@H](NC(=O)CNC(=O)[C@H](CCC(=O)O)NC(=O)[C@H](C)NC(=O)[C@@H](N)Cc1cnc[nH]1)[C@@H](C)O)[C@@H](C)O)C(=O)N[C@@H](Cc1ccccc1)C(=O)N[C@@H](C)C(=O)N[C@@H](Cc1c[nH]c2ccccc12)C(=O)N[C@@H](CC(C)C)C(=O)N[C@H](C(=O)N[C@@H](CCCCN)C(=O)NCC(=O)N[C@@H](CCCNC(=N)N)C(N)=O)C(C)C` (H-HAEGTFTSDCSSYCEGQAAKEIFAWLVKGR-NH2): the EC50 in experiment [2] amounted to 1.4 nM.

Regarding `CC[C@H](C)[C@H](NC(=O)[C@H](Cc1ccccc1)NC(=O)[C@H](CCC(=O)O)NC(=O)[C@H](CCCCN)NC(=O)[C@H](C)NC(=O)[C@H](C)NC(=O)[C@H](CCC(N)=O)NC(=O)CNC(=O)[C@H](CCC(=O)O)NC(=O)[C@@H]1CCC(=O)NCCCC[C@H](NC(=O)[C@H](CC(=O)O)NC(=O)[C@H](CO)NC(=O)[C@@H](NC(=O)[C@H](Cc2ccccc2)NC(=O)[C@@H](NC(=O)CNC(=O)[C@H](CCC(=O)O)NC(=O)[C@H](C)NC(=O)[C@@H](N)Cc2cnc[nH]2)[C@@H](C)O)[C@@H](C)O)C(=O)N[C@@H](CO)C(=O)N[C@@H](CO)C(=O)N[C@@H](Cc2ccc(O)cc2)C(=O)N1)C(=O)N[C@H]1CCCCNC(=O)CC[C@@H](C(=O)NCC(=O)N[C@@H](CCCNC(=N)N)C(N)=O)NC(=O)[C@H](C(C)C)NC(=O)[C@H](CC(C)C)NC(=O)[C@H](Cc2c[nH]c3ccccc23)NC1=O` (H-HAEGTFTSDKSSYEEGQAAKEFIKWLVEGR-NH2; lactam 10-14, 24-28), in experiment [2], the EC50 is 0.0033 nM.

Turning to `CC[C@H](C)[C@H](NC(=O)[C@H](CCC(=O)O)NC(=O)[C@H](CCCCN)NC(=O)[C@H](C)NC(=O)[C@H](C)NC(=O)[C@H](CCC(N)=O)NC(=O)CNC(=O)[C@H](CCC(=O)O)NC(=O)[C@H](CC(C)C)NC(=O)[C@H](Cc1ccc(O)cc1)NC(=O)[C@H](CO)NC(=O)[C@H](CO)NC(=O)[C@@H](NC(=O)[C@H](CC(=O)O)NC(=O)[C@H](CO)NC(=O)[C@@H](NC(=O)[C@H](Cc1ccccc1)NC(=O)[C@@H](NC(=O)CNC(=O)[C@H](CCC(=O)O)NC(=O)[C@H](C)NC(=O)[C@@H](N)Cc1cnc[nH]1)[C@@H](C)O)[C@@H](C)O)C(C)C)C(=O)N[C@@H](Cc1ccccc1)C(=O)N[C@@H](CCCCNC(C)=O)C(=O)N[C@@H](Cc1c[nH]c2ccccc12)C(=O)N[C@@H](CC(C)C)C(=O)N[C@H](C(=O)N[C@@H](CCC(N)=O)C(=O)NCC(=O)N[C@@H](CCCN=C(N)N)C(N)=O)C(C)C` (H-HAEGTFTSDVSSYLEGQAAKEIFK(Ac)WLVQGR-NH2), in experiment [2] (hek293), the EC50 is 0.0048 nM.
